For data set [1], the system named is Helicobacter pylori. The data set is described as follows: Inhibition of growth in vitro in liquid culture (NanoOrange fluorescence). In kind it is cell-based. The settings on record: BHI/6% FCS medium, 24 hours, 37° C., microaerobic, 1% DMSO. The method, then: (§1) Determination of the Inhibition of Growth in Vitro in Liquid Culture
(§2) The principle of the technique is based on the detection of the multiplication of, for example, Helicobacter pylori in liquid culture using BHI/6% FCS medium. The method ensures linear fluorescence increase in the range from […].
(§3) The bacterial culture was distributed with an initial density of 1-3×10^8 microbes/ml in a 96-well MTP in 100 μl aliquots. The test substances in a concentration of […] in a final concentration of 1% DMSO were added to these minicultures. These MTPs were then incubated under microaerobic conditions (Anaerokult, Merck) and with shaking at 37° C. for 24 hours. Following the 24-hour incubation, the minicultures were transferred to filter MTPs and washed twice with isotonic buffer (filtered off with suction, taken up, shaken) and finally were taken up in double-distilled water and shaken, and an aliquot was transferred to a new MTP. This aliquot was admixed with the fluorescent dye NanoOrange (Molecular Probes) in accordance with the manufacturer's instructions. Development of protein detection took piece at 90° C. in a pressure-secured sandwich technique. After the plates had cooled, the fluorescence was measured on a plate reader at 549 nm. […] This calculation was made using origin, sigmoidal curve adaptation by means of the ‘logistic’ algorithm.

For the next data set, the system named is E. coli. Described as above. In kind it is cell-based. Particulars: Escherichia coli, 24 hours incubation. As to the method: as §1, §2, §3
In data set [2] the test system is Helicobacter pylori. The data set is described as follows: Agar dilution test (inhibition of growth in vitro on agar plates). In kind it is cell-based. Particulars: Columbia agar (Oxoid), growth period of 4 days; for MIC50: Helicobacter pylori, 96 h, read-out: approx. MIC50.
For data set [3], the system named is Helicobacter pylori. The data set can be described thus: Helicobacter pylori eradication rate in vivo (urease test). Particulars: infected gerbils, 50 mg/kg by tube, 3 × daily, 4 days; urease test of antrum tissue four weeks after last treatment. The method, then: Determination of the Helicobacter Pylori Eradication Rate in Vivo
Gerbils were infected on days 1, 3, and 5 with a suspension containing 108-109 Helicobacter pylori bacteria per animal. […] Beginning on day 36, the gerbils were treated on four successive days—three times daily at 07.30, 11.30, and 15.00 hours—with a placebo or the test substance, using a tube. Four weeks after the last treatment, the gerbils were sacrificed using CO2. A tissue sample of the antrum was introduced into the urease test solution and incubated at 37° C. for 24 hours. Changes in color of the solution from yellow to violet, which resulted from the increase in pH caused by the formation of NH3 from the urease, were detected. The eradication rate was calculated as the percentage of animals whose stomach tissue sample gave a negative urease test.
Conditions Under Which the Animals Were Kept:
Groups of 5-10 gerbils per cage (type IV Macrolon cage) were kept at an ambient temperature of 23±2° C. and a relative humidity of 50±10%. They were fed ad libitum with NAFAG feed No. 9439 for rats and mice (NAFAG AG, CH-2900, Gosseu, Switzerland) and had free access to mains water during the experiment.
The substances administered are referenced in table C below using numbers which correspond to the numbers of the compounds in the examples.

In brackets after ≈: the same amount, converted by molar mass.

`Cc1nc(C)c(Cl)c(NCc2ccc(Oc3ccc4ncc([N+](=O)[O-])n4n3)cc2)n1` [Compound 1, (5-Chloro-2,6-dimethylpyrimidin-4-yl)[4-(3-nitroimidazo[1,2-b]pyridazin-6-yloxy)benzyl]amine] returned a melting point of 203 °C. In the data set with Helicobacter pylori [1], this compound registered an IC50 of 26 nM. Besides, in the data set on E. coli, the IC50 was over 1000 nM. Further, in the data set on Helicobacter pylori [2], the MIC50 was about 0.005 µg/mL (≈ 0.0117 µM). This compound returned an Eradication rate in the data set with Helicobacter pylori [3] of 100%.
Regarding `Cc1nc(C)c(Cl)c(NCc2cccc(Oc3ccc4ncc([N+](=O)[O-])n4n3)c2)n1` [Compound 3, (5-Chloro-2,6-dimethylpyrimidin-4-yl)[3-(3-nitroimidazo[1,2-b]pyridazin-6-yloxy)benzyl]-amine], the melting point is 222 to 223 °C. Moreover, in the data set on Helicobacter pylori [2], the MIC50 was about 0.05 µg/mL (≈ 0.117 µM).
`COc1cc(CNc2nc(C)nc(C)c2Cl)ccc1Oc1ccc2ncc([N+](=O)[O-])n2n1` [Compound 4, (5-Chloro-2,6-dimethylpyrimidin-4-yl)[3-methoxy-4-(3-nitroimidazo[1,2-b]pyridazin-6-yloxy)-benzyl]amine] returned a melting point of 229 to 232 °C. The MIC50 with Helicobacter pylori [2] was about 0.001 µg/mL (≈ 0.00219 µM). Further, the Eradication rate with Helicobacter pylori [3] turned out to be 100%.
`Cc1nc(C)c(Cl)c(NCc2ccc(Oc3ccc4ncc([N+](=O)[O-])n4n3)c(OCC3CC3)c2)n1` [Compound 6, (5-Chloro-2,6-dimethylpyrimidin-4-yl)[3-cyclopropylmethoxy-4-(3-nitroimidazo[1,2-b]pyridazin-6-yloxy)benzyl]amine] displayed a melting point of 178 to 180 °C.
For the compound `Cc1nc(C)c(Cl)c(NCc2ccc(Oc3ccc4ncc([N+](=O)[O-])n4n3)c(OC(F)F)c2)n1` [Compound 8, (5-Chloro-2,6-dimethylpyrimidin-4-yl)[3-(1,1-difluoromethoxy)-4-(3-nitroimidazo[1,2-b]pyridazin-6-yloxy)benzyl]amine], the melting point was 191 to 193.5 °C. The MIC50 in the data set with Helicobacter pylori [2] is about 0.01 µg/mL (≈ 0.0203 µM). In the data set on Helicobacter pylori [3], this compound gave an Eradication rate of 100%.
The compound `Cc1nc(C)c(Cl)c(NCc2ccc(Oc3ccc4ncc([N+](=O)[O-])n4n3)c(C)c2)n1` [Compound 9, (5-Chloro-2,6-dimethylpyrimidin-4-yl)[3-methyl-4-(3-nitroimidazo[1,2-b]pyridazin-6-yloxy)-benzyl]amine] returned a melting point of 183 to 185 °C. Also, the MIC50 in the data set with Helicobacter pylori [2] is about 0.001 µg/mL (≈ 0.00227 µM).
Compound `Cc1nc(C)c(Cl)c(NCc2ccc(Oc3ccc4ncc([N+](=O)[O-])n4n3)c(F)c2)n1` [Compound 10, (5-Chloro-2,6-dimethylpyrimidin-4-yl)[3-fluoro-4-(3-nitroimidazo[1,2-b]pyridazin-6-yloxy)-benzyl]amine] returned a melting point of 193 to 196 °C. For the same compound, in the data set on Helicobacter pylori [2], the MIC50 is about 0.01 µg/mL (≈ 0.0225 µM). The Eradication rate with Helicobacter pylori [3] was 100%.
Consider `Cc1nc(C)c(Cl)c(NCc2ccc(Oc3ccc4ncc([N+](=O)[O-])n4n3)cc2F)n1` [Compound 11, (5-Chloro-2,6-dimethylpyrimidin-4-yl)[2-fluoro-4-(3-nitroimidazo[1,2-b]pyridazin-6-yloxy)-benzyl]amine], for which the melting point is 147 to 149 °C. Besides, the MIC50 in the data set on Helicobacter pylori [2] is about 0.01 µg/mL (≈ 0.0225 µM). Moreover, the Eradication rate in the data set with Helicobacter pylori [3] is given as 100%.
On to `Cc1nc(C)c(Cl)c(NCc2ccc(Oc3ccc4ncc([N+](=O)[O-])n4n3)c(OCC(F)(F)F)c2)n1` [Compound 12, (5-Chloro-2,6-dimethylpyrimidin-4-yl)[4-(3-nitroimidazo[1,2-b]pyridazin-6-yloxy)-3-(2,2,2-trifluoroethoxy)benzyl]amine], for which the melting point was in the range of 185 to 188 °C. For the same compound, in the data set on Helicobacter pylori [2], the MIC50 is about 0.01 µg/mL (≈ 0.0191 µM).
`COc1cc(CNc2nc(C)nc(C)c2Cl)cc(Oc2ccc3ncc([N+](=O)[O-])n3n2)c1` [Compound 13, (5-Chloro-2,6-dimethylpyrimidin-4-yl)[3-methoxy-5-(3-nitroimidazo[1,2-b]pyridazin-6-yloxy)-benzyl]amine] had a melting point of 198 to 199 °C.
As to `Cc1nc(C)c(Cl)c(NCc2cc(O)cc(Oc3ccc4ncc([N+](=O)[O-])n4n3)c2)n1` [Compound 14, 3-[(5-Chloro-2,6-dimethylpyrimidin-4-ylamino)methyl]-5-(3-nitroimidazo[1,2-b]pyridazin-6-yloxy)phenol], the melting point was found to be 263 °C. In addition, the MIC50 in the data set on Helicobacter pylori [2] is about 0.01 µg/mL (≈ 0.0226 µM).
As for `Cc1nc(C)c(Cl)c(NCc2cc(Oc3ccc4ncc([N+](=O)[O-])n4n3)ccc2F)n1` [Compound 15, (5-Chloro-2,6-dimethylpyrimidin-4-yl)[2-fluoro-5-(3-nitroimidazo[1,2-b]pyridazin-6-yloxy)-benzyl]amine], the MIC50 in the data set with Helicobacter pylori [2] was about 0.001 µg/mL (≈ 0.00225 µM).
Consider `COc1cc(CNc2nc(C)nc(C)c2Cl)cc(Br)c1Oc1ccc2ncc([N+](=O)[O-])n2n1` [Compound 16, [3-Bromo-5-methoxy-4-(3-nitroimidazo[1,2-b]pyridazin-6-yloxy)benzyl](5-chloro-2,6-dimethyl-pyrimidin-4-yl)amine], for which the melting point fell in the range of 230 to 234 °C. This compound displayed an Eradication rate in the data set with Helicobacter pylori [3] of 100%.
Consider `O=[N+]([O-])c1cnc2ccc(Oc3ccc(CNc4ncncc4Cl)cc3)nn12` [Compound 17, (5-Chloro-pyrimidin-4-yl)-[4-(3-nitro-imidazo[1,2-b]pyridazin-6-yloxy)-benzyl]-amine], for which the melting point was 185 °C.
The compound `Cc1nc(C)c(Cl)c(NCc2ccc(Oc3ccc4ncc([N+](=O)[O-])n4n3)c(O)c2)n1` [Compound 18, (5-Chloro-2,6-dimethyl-pyrimidin-4-yl)-[4-(3-nitro-imidazo[1,2-b]pyridazin-6-yloxy)-5-hydroxy-benzyl]-amine] had a melting point of over 114 °C.
For “(5-Chloro-2,6-dimethylpyrimidin-4-yl)[4-methoxy-3-nitroimidazo[1,2-b]pyridazin-6-yloxy)-benzyl]amino [Compound 5]”, in the data set on Helicobacter pylori [2], the “approx. MIC50” value is about 0.05 µg/mL.

The values are drawn from patent publication US6818642B2, “Benzylaminopyrimidines” (Altana Pharma AG, priority 2001, dated 2004).
